{"source": "patent US20200317741A1", "about": "“COMPOSITION FOR PREVENTING HAIR LOSS OR PROMOTING HAIR GROWTH” (BR PHARM CO., LTD., priority 2019, published 2020)", "format_in_all_cases": "cell-based", "key": {"keratinocytes": {"tested_on": "keratinocytes", "assay": "Keratinocyte growth by Wnt-derived peptides (microscopy)", "conditions": "72 hours (FIG. 3A)", "method": "(§1) To confirm the shape change and proliferation rate of cells, keratinocytes T0020001 (AddexBio), fibroblasts (ATCC), and dermal papilla cells were cultured in DMEM medium containing 10% fetal bovine serum and 1% penicillin/streptomycin.\n(§2) After the cells were recovered by treating the cultured cells with trypsin/EDTA and the number of cells was measured using a hematocytometer. The cells were seeded in 96 well plates at 3×10^3 cells/200 μL/well and stabilized for at least 4 hours.\n(§3) Thereafter, the medium was removed, diluted with DEME medium so as to be the Wnt peptides (Wnt-1, Wnt-2) of 10, 100, 1000, and 10000 ng/mL and then treated with cells and cultured for 72 hours in an incubator at 37° C., 5% CO2. The cells were then observed by a microscope to analyze the morphology and growth rate of the cells."}, "dermal papilla cells [1]": {"tested_on": "dermal papilla cells", "assay": "Dermal papilla cell growth by Wnt-derived peptides (microscopy)", "conditions": "100 ng/mL among 10-10000 ng/mL, 72 hours (FIG. 3C)", "method": "as §1, §2, §3"}, "β-catenin": {"tested_on": "β-catenin", "assay": "Expression analysis of β-catenin in dermal papilla cells (western blot)", "conditions": "FIG. 6 legend", "method": "(§4) As in Example 1, the dermal papilla cells were stabilized for at least 4 hours after seeding in 6 well plates at 4×10^4 cells/well. Thereafter, the medium was removed, and the cell was treated with PDRN, Wnt-1 peptide and Wnt-2 peptide at various concentrations alone or in combination and incubated for 72 hours in an incubator at 37° C., 5% CO2.\n(§5) Then, the cells were lysed by adding lysis buffer (1 M Tris-HCl, 0.5 M EDTA, 1% Triton X-100, 100 mM PMSF) to each cell, and the protein was quantified using a BCA (Bicinconinic acid) kit. 20 μg of protein was loaded on 10% SDS-polyacrylamide and electrophoresed at 125 V. The protein separated by electrophoresis was transferred to PVDF membrane (Immobilon-P transfermembrane) by electrophoresis at 50 mA for 120 minutes using transfer buffer (20% methanol, 25 mM Tris-HCl, 192 mM glycine).\n(§6) To prevent nonspecific binding, the membranes were blocked with 5% non-fat skim milk and then the reaction was carried out at 4° C. for 12 hours with a primary antibody (β-catenin, c-myc, Santa Cruz Biotechnology, Inc.) diluted to 1:1000 in TTBS solution ([…], pH 7.4; 20 mM NaCl; 0.05% Tween-20). Thereafter, the membrane was washed three times with TTBS and reacted with a secondary antibody (HRP-conjugated anti-rabbit IgG) diluted to 1:2000 at room temperature for 2 hours. The membrane was then washed three times with TTBS and then protein expression was confirmed on the X-ray film using an ECL diagnostic kit."}, "c-myc": {"tested_on": "c-myc", "assay": "Expression analysis of c-myc in dermal papilla cells (western blot)", "conditions": "for activity of c-myc: FIG. 7 legend", "method": "as §4, §5, §6"}, "fibroblasts": {"tested_on": "fibroblasts", "assay": "Fibroblast growth by Wnt-derived peptides (microscopy)", "conditions": "10-10000 ng/mL, 72 hours, compared to the control group (FIG. 3B)", "method": "as §1, §2, §3"}, "dermal papilla cells [2]": {"tested_on": "dermal papilla cells", "assay": "Dermal papilla cell growth rate by cell counting (PDRN alone or with Wnt-1+Wnt-2)", "conditions": "PDRN 50, 100, 200 μg/mL, 72 hours, relative to control without PDRN (FIG. 2)", "method": "Dermal papilla cells (Promocells) were cultured in an incubator at 37° C., 5% CO2 using DMEM medium (Dulbeco's Modified Eagle's Medium) containing 10% fetal bovine serum (FBS) and 1% penicillin/streptomycin.\nCells were recovered by treating the cultured cells with trypsin/EDTA, and then the number of cells was measured using a hemacytometer. The cells were seeded in 96 well plates at 3×10^3 cells/200 μL/well and then stabilized for at least 4 hours. Thereafter, the medium was removed, diluted in DEME medium so as to be the polydeoxyribonucleotide (PDRN) of 50, 100, 200 μg/mL concentration and then treated with cells and cultured for 72 hours in an incubator at 37° C., 5% CO2.\nSubsequently, the cells were recovered by treating them with trypsin/EDTA and then the number of cells was measured using a hematocytometer. Cell growth rate was analyzed by calculating percentages based on the control group without the treatment with PDRN.\nAs in Example 1, the dermal papilla cells were seeded in 96 well plates at 3×10^3 cells/200 μL/well and stabilized for at least 4 hours. Thereafter, the medium was removed, diluted with DEME medium so as to be polydeoxyribonucleotide (PDRN, BR Pharm Co. Ltd.) of 25, 50, 100 μg/mL and Wnt-1 peptide+Wnt-2 peptide of 0.1 μg/mL (each 0.05 μg/mL) and then treated with cells and cultured for 72 hours in an incubator at 37° C., 5% CO2."}}, "note": "Ends that are not written are not given here."}
{"substance": "MCCGRGYDQF (Ac-MCCGRGYDQF; cysteine pairing not given here) [Wnt-1]", "values": [{"measurement": "growth rate of the cells (keratinocytes)", "setting": "keratinocytes; 10, 100, 1000, 10000 ng/mL", "result": "growth rate of the cells was increased"}, {"measurement": "cell growth rate (dermal papilla cells) at 100 ng/mL", "setting": "dermal papilla cells [1]", "result": "highest cell growth rate"}, {"measurement": "activity of β-catenin", "setting": "β-catenin", "result": "effect of increasing the activity of β-catenin"}, {"measurement": "activity of c-myc", "setting": "c-myc", "result": "effect of increasing the activity of c-myc"}]}
{"substance": "MCCGRGYNYH (Ac-MCCGRGYNYH; cysteine pairing not given here) [Wnt-2]", "values": [{"measurement": "cell growth rate (keratinocytes) at 100 ng/mL", "setting": "keratinocytes; 100 ng/mL among 10-10000 ng/mL", "result": "highest cell growth rate"}, {"measurement": "cell growth (fibroblasts) compared to the control group", "setting": "fibroblasts", "result": "no change was observed"}, {"measurement": "cell growth rate (dermal papilla cells) at 100 ng/mL", "setting": "dermal papilla cells [1]", "result": "highest cell growth rate"}, {"measurement": "activity of β-catenin", "setting": "β-catenin", "result": "effect of increasing the activity of β-catenin"}, {"measurement": "activity of c-myc", "setting": "c-myc", "result": "effect of increasing the activity of c-myc"}]}
{"substance": "polydeoxyribonucleotide [PDRN]", "values": [{"measurement": "growth rate of the dermal papilla cells", "setting": "dermal papilla cells [2]", "result": "increases as the PDRN treatment concentration increases"}, {"measurement": "activity of β-catenin", "setting": "β-catenin", "result": "effect of increasing the activity of β-catenin"}, {"measurement": "expression of c-myc with PDRN treatment concentration", "setting": "c-myc; 72 hours (FIG. 7)", "result": "increased as the treatment concentration of PDRN increased"}]}
